# Data as given in patent US20100041089A1, “IMPROVED METHOD FOR DETECTING CHEMICAL […]” (priority 2006, published 2010).
# System: yeast genes (expressed mRNA)
# Experiment: DNA chip measurement of expressed mRNA of yeast genes after culture with a toxic chemical substance
# Type: cell-based, Saccharomyces cerevisiae S288C
# Settings: for The level of expressed mRNA in the presence of chemical substance/The level of expressed mRNA in the absence of chemical substance: cultured two hours with substance; for level of expressed mRNA in the presence of chemical substance / level in the absence of chemical substance: cultured two hours with the chemical substance
# How it was run: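 Expression is given as treated/untreated fluorescence ratio on a whole-genome yeast DNA chip, a ratio of two or more being significant. Log-phase S288C cultures in YPD at 25 °C received the chemical for 2 h at a dose that slows growth without killing. mRNA was reverse-transcribed with Cy3- or Cy5-dUTP.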
smiles,measurement,setting,value
"Cl[C@H]1[C@H](Cl)[C@@H](Cl)[C@@H](Cl)[C@H](Cl)[C@H]1Cl [(7), γ-Hexachlorocyclohexane]",The level of expressed mRNA in the presence of chemical substance/The level of expressed mRNA in the absence of chemical substance,yeast gene YJL151C,1.4
same,The level of expressed mRNA in the presence of chemical substance/The level of expressed mRNA in the absence of chemical substance,yeast gene YJL152W,1.2
same,The level of expressed mRNA in the presence of chemical substance/The level of expressed mRNA in the absence of chemical substance,yeast gene YJL161W,3.6
same,The level of expressed mRNA in the presence of chemical substance/The level of expressed mRNA in the absence of chemical substance,yeast gene YJL171C,1.4
same,The level of expressed mRNA in the presence of chemical substance/The level of expressed mRNA in the absence of chemical substance,yeast gene YJR008W,2.9
same,level of expressed mRNA in the presence of chemical substance / level in the absence of chemical substance,yeast gene YJR030C,0.7
same,The level of expressed mRNA in the presence of chemical substance/The level of expressed mRNA in the absence of chemical substance,yeast gene YJR054W,0.9
same,level of expressed mRNA in the presence of chemical substance / level in the absence of chemical substance,yeast gene YKL051W,0.6
same,The level of expressed mRNA in the presence of chemical substance/The level of expressed mRNA in the absence of chemical substance,yeast gene YKL071W,3.7
same,The level of expressed mRNA in the presence of chemical substance/The level of expressed mRNA in the absence of chemical substance,yeast gene YKL086W,0.7
same,level of expressed mRNA in the presence of chemical substance / level in the absence of chemical substance,yeast gene YKL097C,0.8
same,level of expressed mRNA in the presence of chemical substance / level in the absence of chemical substance,yeast gene YKL100C,1.2
same,The level of expressed mRNA in the presence of chemical substance/The level of expressed mRNA in the absence of chemical substance,yeast gene YKL151C,5.6
same,The level of expressed mRNA in the presence of chemical substance/The level of expressed mRNA in the absence of chemical substance,yeast gene YKL153W,1.1
same,The level of expressed mRNA in the presence of chemical substance/The level of expressed mRNA in the absence of chemical substance,yeast gene YKL195W,2.1
same,level of expressed mRNA in the presence of chemical substance / level in the absence of chemical substance,yeast gene YKR040C,0.9
same,The level of expressed mRNA in the presence of chemical substance/The level of expressed mRNA in the absence of chemical substance,yeast gene YKR091W,1.3
same,The level of expressed mRNA in the presence of chemical substance/The level of expressed mRNA in the absence of chemical substance,yeast gene YLR054C,1.1
same,The level of expressed mRNA in the presence of chemical substance/The level of expressed mRNA in the absence of chemical substance,yeast gene YLR149C,1.6
same,The level of expressed mRNA in the presence of chemical substance/The level of expressed mRNA in the absence of chemical substance,yeast gene YLR152C,1.4
same,The level of expressed mRNA in the presence of chemical substance/The level of expressed mRNA in the absence of chemical substance,yeast gene YLR194C,1.0
same,level of expressed mRNA in the presence of chemical substance / level in the absence of chemical substance,yeast gene YLR226W,1.9
same,The level of expressed mRNA in the presence of chemical substance/The level of expressed mRNA in the absence of chemical substance,yeast gene YLR324W,1.0
same,level of expressed mRNA in the presence of chemical substance / level in the absence of chemical substance,yeast gene YLR338W,0.9
same,The level of expressed mRNA in the presence of chemical substance/The level of expressed mRNA in the absence of chemical substance,yeast gene YLR350W,1.2
same,The level of expressed mRNA in the presence of chemical substance/The level of expressed mRNA in the absence of chemical substance,yeast gene YLR387C,1.1
same,level of expressed mRNA in the presence of chemical substance / level in the absence of chemical substance,yeast gene YLR392C,1.0
same,level of expressed mRNA in the presence of chemical substance / level in the absence of chemical substance,yeast gene YLR415C,1.2
same,level of expressed mRNA in the presence of chemical substance / level in the absence of chemical substance,yeast gene YLR427W,1.2
same,The level of expressed mRNA in the presence of chemical substance/The level of expressed mRNA in the absence of chemical substance,yeast gene YLR460C,1.1
same,level of expressed mRNA in the presence of chemical substance / level in the absence of chemical substance,yeast gene YML013W,1.3
same,level of expressed mRNA in the presence of chemical substance / level in the absence of chemical substance,yeast gene YML029W,1.1
same,level of expressed mRNA in the presence of chemical substance / level in the absence of chemical substance,yeast gene YML041C,1.4
same,level of expressed mRNA in the presence of chemical substance / level in the absence of chemical substance,yeast gene YML079W,1.2
same,The level of expressed mRNA in the presence of chemical substance/The level of expressed mRNA in the absence of chemical substance,yeast gene YML117W,0.7
same,The level of expressed mRNA in the presence of chemical substance/The level of expressed mRNA in the absence of chemical substance,yeast gene YMR009W,1.9
same,The level of expressed mRNA in the presence of chemical substance/The level of expressed mRNA in the absence of chemical substance,yeast gene YMR067C,1.2
same,level of expressed mRNA in the presence of chemical substance / level in the absence of chemical substance,yeast gene YMR068W,1.5
same,level of expressed mRNA in the presence of chemical substance / level in the absence of chemical substance,yeast gene YMR071C,1.8
same,The level of expressed mRNA in the presence of chemical substance/The level of expressed mRNA in the absence of chemical substance,yeast gene YMR090W,2.7
same,The level of expressed mRNA in the presence of chemical substance/The level of expressed mRNA in the absence of chemical substance,yeast gene YMR095C,1.2
same,The level of expressed mRNA in the presence of chemical substance/The level of expressed mRNA in the absence of chemical substance,yeast gene YMR097C,1.5
same,The level of expressed mRNA in the presence of chemical substance/The level of expressed mRNA in the absence of chemical substance,yeast gene YMR102C,1.8
same,The level of expressed mRNA in the presence of chemical substance/The level of expressed mRNA in the absence of chemical substance,yeast gene YMR107W,1.2
same,level of expressed mRNA in the presence of chemical substance / level in the absence of chemical substance,yeast gene YMR160W,1.0
same,The level of expressed mRNA in the presence of chemical substance/The level of expressed mRNA in the absence of chemical substance,yeast gene YMR180C,1.7
same,The level of expressed mRNA in the presence of chemical substance/The level of expressed mRNA in the absence of chemical substance,yeast gene YMR184W,1.6
same,The level of expressed mRNA in the presence of chemical substance/The level of expressed mRNA in the absence of chemical substance,yeast gene YMR191W,2.0
same,The level of expressed mRNA in the presence of chemical substance/The level of expressed mRNA in the absence of chemical substance,yeast gene YMR295C,1.3
same,The level of expressed mRNA in the presence of chemical substance/The level of expressed mRNA in the absence of chemical substance,yeast gene YMR316W,2.0
same,level of expressed mRNA in the presence of chemical substance / level in the absence of chemical substance,yeast gene YNL026W,1.5
same,The level of expressed mRNA in the presence of chemical substance/The level of expressed mRNA in the absence of chemical substance,yeast gene YNL044W,0.9
